Assay results as given in ChEMBL document CHEMBL1201862, “PubChem BioAssay data set” (2004).
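Compound exposure: 48 hours, 5 concentrations, 96-well plates. The concentration for 50% growth inhibition is given as GI50.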 The source made the active and inactive calls. Cut-off read from the data, not from the text of the source: active = GI50 up to about 1.1 µM and inactive = higher.

Assays:
Test in all cases: DTP human tumour cell line panel, 48 h
[1] = system: MDA-MB-231
[2] = system: UACC-257
[3] = system: MOLT-4
[4] = system: HCC 2998
[5] = system: PC-3
[6] = system: SK-MEL-5
[7] = system: NCI-H226
[8] = system: IGROV-1
[9] = system: SN12C
[10] = system: SF-295
[11] = system: SK-OV-3
[12] = system: RPMI-8226
[13] = system: U-251
[14] = system: HOP-92
[15] = system: HT-29
[16] = system: SR
[17] = system: CCRF-CEM
[18] = system: HL-60
[19] = system: UO-31
[20] = system: RXF 393

Measured: GI50

CC(C)CC1C(=O)NCCC(NC(=O)C(N)Cc2ccc(O)cc2)C(=O)NC(Cc2ccccc2)C(=O)NC(Cc2ccccc2)NC1=O (stereo not given)
inactive: [1] > 100 µM | [2] > 100 µM | [3] > 100 µM | [4] > 100 µM | [5] > 100 µM | [6] 17.9 µM | [7] > 100 µM | [8] > 100 µM | [9] > 100 µM | [10] > 100 µM | [11] > 100 µM | [12] 78.2 µM | [13] > 100 µM | [14] 72.9 µM | [15] > 100 µM | [16] > 100 µM | [17] > 100 µM | [18] > 100 µM | [19] > 100 µM | [20] > 100 µM

O=C1C(Nc2ccc(S(=O)(=O)Nc3cnc4ccccc4n3)cc2)=C/C(=N\c2ccc(S(=O)(=O)Nc3cnc4ccccc4n3)cc2)c2ccccc21
inactive: [1] 23.1 µM | [2] 37.7 µM | [3] 25 µM | [4] 17.5 µM | [5] 20.5 µM | [6] 17.5 µM | [7] 20.6 µM | [8] 19.1 µM | [9] 16.7 µM | [10] 16.3 µM | [11] 17.2 µM | [12] 27.9 µM | [13] 19.1 µM | [14] 15 µM | [15] 20.4 µM | [16] 31.4 µM | [17] 24 µM | [18] 27.9 µM | [19] 15.6 µM | [20] 17.7 µM

COC(=O)N/N=C(\C)C(CN1CCOCC1)C(c1ccccc1)c1cc2ccccc2oc1=O (stereo not given)
inactive: [1] > 100 µM | [2] 82.4 µM | [3] 44.2 µM | [4] > 100 µM | [5] > 100 µM | [6] > 100 µM | [7] > 100 µM | [8] > 100 µM | [9] > 100 µM | [10] > 100 µM | [11] > 100 µM | [12] 25 µM | [13] > 100 µM | [14] 30.5 µM | [15] > 100 µM | [16] 23.9 µM | [17] 44.6 µM | [18] 36.3 µM | [19] > 100 µM | [20] 72.1 µM

COc1c(O)cc2c3c(ccnc13)NC=C2
inactive: [1] 35.6 µM | [2] > 100 µM | [3] 3.25 µM | [4] > 100 µM | [5] 24.3 µM | [6] > 100 µM | [7] > 100 µM | [8] > 100 µM | [9] > 100 µM | [10] > 100 µM | [11] 83.2 µM | [12] > 100 µM | [13] 80.2 µM | [14] > 100 µM | [15] 16.9 µM | [16] 17.3 µM | [17] 4.78 µM | [18] 11.4 µM | [19] 36.8 µM | [20] 18.1 µM

COc1ccc2c(O)c(S(=O)(=O)c3ccc(C)cc3)c(=O)oc2c1OC
inactive: [1] > 100 µM | [2] > 100 µM | [3] > 100 µM | [4] > 100 µM | [5] > 100 µM | [6] > 100 µM | [7] > 100 µM | [8] > 100 µM | [9] > 100 µM | [10] > 100 µM | [11] > 100 µM | [12] > 100 µM | [13] > 100 µM | [14] > 100 µM | [15] > 100 µM | [16] > 100 µM | [17] > 100 µM | [18] > 100 µM | [19] > 100 µM | [20] > 100 µM

CC(=O)OCC1(C)C(O)CCC2(C)C1CCC1CC3CC12CCC3(O)CO (stereo not given)
inactive: [1] > 100 µM | [2] > 100 µM | [3] > 56.5 µM | [4] 20.8 µM | [5] > 91 µM | [6] > 79.4 µM | [7] > 100 µM | [8] > 47 µM | [9] > 100 µM | [10] 10.8 µM | [11] > 100 µM | [12] 47.5 µM | [13] > 100 µM | [14] > 81.5 µM | [15] 34.3 µM | [16] 4.42 µM | [17] 9.77 µM | [18] 6.35 µM | [19] 25 µM | [20] > 100 µM
